Assay results published in patent publication US8487006B2, “Method of enhancing TGF-β signalling” (Auxagen, Inc., priority 2008, dated 2013).

Legend:
Assay type in all cases: cell-based
[1] = test system: TGF-β1-stimulated Smad2 phosphorylation in Mv1Lu cells; assay: TGF-β1-stimulated Smad2 phosphorylation, quantitative Western blot (P-Smad2/Smad2); conditions: for concentration dependence of the effect on TGF-β1-stimulated Smad2 phosphorylation: several concentrations of the inhibitors, 100 pM TGF-β1 for 30 min; for time dependence of the effect on TGF-β1-stimulated Smad2 phosphorylation: 20 LM MDC, 40 μM monensin, 20 μM TFP, 100 pM TGF-β1, several time periods
Method: (A-I, K) Cells were pretreated with 10 mg/ml β-CD (A, K), 20 LM MDC (B), 40 μM monensin (C), 20 μM TFP (D) and 0.45 M sucrose (K) or several concentrations (as indicated) of β-CD (E), TFP (F), monensin (G), chloroquine (H), dynasore (I), at 37° C. for 1 h. The cells were then stimulated with vehicle only or […] TGF-β1 (A to I) or several concentrations (as indicated) of TGF-β1 (K). After several time periods, as indicated, at 37° C., cell lysates were analysed by 7.5% SDS PAGE followed by Western blot analysis using antibodies to P-Smad2 and Smad2 and chemiluminescence development (a or top) and quantitation by densitometry (b or bottom). The relative level of P-Smad2 was expressed as arbitrary units (A.U.) (A, B, C, D, K) (b). The relative level of P-Smad2 in cells treated with TGF-β alone was taken as 100% of control (E to I, bottom). The data shown is representative of 3 independent experiments. (J) Cells were pretreated with 10 mg/ml β-CD (c,d) at 37° C. for 1 h. The cells were then stimulated with vehicle only (a) or with 100 pM TGF-β (b,d). After 30 min at 37° C. the cells were fixed and subjected to indirect immunofluorescent staining using antibody to P-Smad2. The magnification is 200×. The data shown is representative of 3 independent experiments.
If TGF-β-induced signaling occurs in endosomes, as reported previously^6-15, inhibitors of clathrin-dependent endocytosis would be expected to attenuate TGF-β-stimulated signaling such as Smad2 phosphorylation and nuclear colocalization^4,5. To test this, Mv1Lu cells were pretreated with vehicle only or with clathrin-dependent endocytosis inhibitors at 37° C. for 30 min and then treated with or without 100 pM TGF-β1. After several time periods, the relative levels of P-Smad2 in treated and stimulated cells were analyzed by quantitative Western blot analysis using antibodies to P-Smad2 and Smad2. […] After stimulation of cells with TGF-β1 for 60 min, β-CD, TFP, MDC and monensin enhanced TGF-β1-stimulated Smad2 phosphorylation by ˜1.5-2.5 fold (FIGS. 1Ab, 1Bb, 1Cb, and 1Db). To further characterize the effects of these inhibitors on Smad2 phosphorylation, Mv1Lu cells were pretreated with vehicle only or with several concentrations of the inhibitors at 37° C. for 30 min and then stimulated with 100 pM of TGF-β1. After 30 min at 37° C., cell lysates were subjected to Western blot analysis using antibodies to P-Smad2 and Smad2 followed by quantitation with densitometry. […] To determine the effect of β-CD on TGF-β1-stimulated nuclear localization of P-Smad2, Mv1Lu cells were pretreated with vehicle only or with β-CD (10 mg/ml). After 1 h at 37° C., cells were stimulated with TGF-β1 ([…]) for 30 min. The nuclear localization of P-Smad2 was then analyzed by indirect fluorescent staining.
To define the coated-pit stages that are important in TGF-β1-induced signaling, we treated Mv1Lu cells with hyperosmotic sucrose (0.45 M) or β-CD and examined TGF-β1-stimulated Smad2 phosphorylation in these cells. […] In cells stimulated with 100 pM TGF-β1, hyperosmotic sucrose attenuated Smad2 phosphorylation by ˜60% (FIG. 1Kb). On the other hand, β-CD enhanced TGF-β1-stimulated Smad2 phosphorylation at all concentrations of TGF-β1. It enhanced TGF-β1-stimulated Smad2 phosphorylation by 2-4 fold when compared with the control (treatment without β-CD) (FIGS. 1Ka and 1Kb).

[2] = test system: TβR-I and SARA at the plasma membrane in Mv1Lu cells; assay: Co-localization and accumulation of TβR-I and SARA, immunofluorescent microscopy; conditions: 20 μM TFP, 10 mg/ml β-CD, 40 μM dynasore, 200 μM chloroquine, with 100 pM TGF-β1, 30 min
Method: Cells were pretreated with vehicle only or 20 μM TFP, 10 mg/ml β-CD, 40 μM dynasore (Dyn) and 200 μM chloroquine (CQ) at 37° C. for 1 h. Treated cells were then stimulated with and without 100 pM TGF-β1. After 30 min at 37° C., cells were fixed and analyzed by indirect immunofluorescent staining using antibody to TβR-I (panels 1-10) and SARA (panels 11-20), DAPI (nuclear) staining was also performed (panels 21-30). Merged staining is also shown (panels 31-40). Insets indicate the co-localization and accumulation of SARA and TβR-I at the plasma membrane.
TGF-β stimulates Smad2 phosphorylation by inducing association of TβR-I and SARA^6,7 (which serves as an anchor for Smad2), binding of Smad2 to SARA, and subsequent phosphorylation of Smad2 by TβR-I in the TβR-1-SARA-Smad2 complex. If clathrin-dependent endocytosis inhibitors enhance TGF-β-induced signaling (TGF-β-stimulated Smad2 phosphorylation) by increasing accumulation of TβR-I/TβR-II complexes at the coated pits, they should promote co-localization and accumulation of TβR-I and SARA at the plasma membrane. To test this, Mv1Lu cells were stimulated with 100 pM TGF-β1. After 30 min at 37° C., […] analyzed by immunofluorescent microscopy using antibodies to TβR-I and SARA. […] This is consistent with the previous report that TGF-β enhances TGF-β receptor internalization^16.

[3] = test system: nuclear localization of P-Smad2 in Mv1Lu cells; assay: Nuclear localization of P-Smad2, indirect immunofluorescent staining; conditions: β-CD 10 mg/ml 1 h, then TGF-β1 (10 pM) for 30 min
Method: (A-I, K) Cells were pretreated with 10 mg/ml β-CD (A, K), 20 LM MDC (B), 40 μM monensin (C), 20 μM TFP (D) and 0.45 M sucrose (K) or several concentrations (as indicated) of β-CD (E), TFP (F), monensin (G), chloroquine (H), dynasore (I), at 37° C. for 1 h. The cells were then stimulated with vehicle only or […] TGF-β1 (A to I) or several concentrations (as indicated) of TGF-β1 (K). After several time periods, as indicated, at 37° C., cell lysates were analysed by 7.5% SDS PAGE followed by Western blot analysis using antibodies to P-Smad2 and Smad2 and chemiluminescence development (a or top) and quantitation by densitometry (b or bottom). The relative level of P-Smad2 was expressed as arbitrary units (A.U.) (A, B, C, D, K) (b). […]
If TGF-β-induced signaling occurs in endosomes, as reported previously^6-15, inhibitors of clathrin-dependent endocytosis would be expected to attenuate TGF-β-stimulated signaling such as Smad2 phosphorylation and nuclear colocalization^4,5. […] After several time periods, the relative levels of P-Smad2 in treated and stimulated cells were analyzed by quantitative Western blot analysis using antibodies to P-Smad2 and Smad2. […] After 30 min at 37° C., cell lysates were subjected to Western blot analysis using antibodies to P-Smad2 and Smad2 followed by quantitation with densitometry. […]

Compound	concentration dependence of the effect on TGF-β1-stimulated Smad2 phosphorylation [1]	co-localization and accumulation of TβR-I and SARA at the plasma membrane, co-treatment with TGF-β1 [2]	attenuation of Smad2 phosphorylation ([1]; hyperosmotic sucrose 0.45 M, cells stimulated with 100 pM TGF-β1)	effect on TGF-β1-stimulated Smad2 phosphorylation ([1]; hyperosmotic sucrose 0.45 M, various concentrations of TGF-β1)	time dependence of the effect on TGF-β1-stimulated Smad2 phosphorylation ([1]; 10 mg/ml β-CD)	enhancement of TGF-β1-stimulated Smad2 phosphorylation compared with the control (treatment without β-CD) ([1]; 10 mg/ml β-CD, all concentrations of TGF-β1)	nuclear localization of P-Smad2 [3]
CCN(CC)CCCC(C)Nc1ccnc2cc(Cl)ccc12 (stereo not drawn) [chloroquine]	enhanced TGF-β1-stimulated Smad2 phosphorylation in a concentration-dependent manner	promoted co-localization and accumulation of TβR-I and SARA at the plasma membrane					
OC[C@H]1O[C@@](CO)(O[C@H]2O[C@H](CO)[C@@H](O)[C@H](O)[C@H]2O)[C@@H](O)[C@@H]1O [hyperosmotic sucrose, sucrose]			~60%	inhibited TGF-β1-stimulated Smad2 phosphorylation			
CC[C@@]1([C@@H]2O[C@@H]([C@H]3O[C@@](O)(CO)[C@H](C)C[C@@H]3C)C[C@@H]2C)CC[C@H]([C@]2(C)CC[C@]3(C[C@H](O)[C@@H](C)[C@@H]([C@@H](C)[C@@H](OC)[C@H](C)C(=O)O)O3)O2)O1 [monensin]	enhanced TGF-β1-stimulated Smad2 phosphorylation in a concentration-dependent manner				enhanced TGF-β1-stimulated Smad2 phosphorylation in a time-dependent manner		
CN(C)c1cccc2c(S(=O)(=O)NCCCCCN)cccc12 [MDC, monodansylcadaverine]					enhanced TGF-β1-stimulated Smad2 phosphorylation in a time-dependent manner		
CN(C)CCCN1c2ccccc2Sc2ccc(C(F)(F)F)cc21 [TFP, triflupromazine]	enhanced TGF-β1-stimulated Smad2 phosphorylation in a concentration-dependent manner	promoted co-localization and accumulation of TβR-I and SARA at the plasma membrane			enhanced TGF-β1-stimulated Smad2 phosphorylation in a time-dependent manner		
methyl-β-cyclodextrin [β-CD]	enhanced TGF-β1-stimulated Smad2 phosphorylation in a concentration-dependent manner	promoted co-localization and accumulation of TβR-I and SARA at the plasma membrane			enhanced TGF-β1-stimulated Smad2 phosphorylation in a time-dependent manner	2-4 fold	β-CD and TGF-β1 together promoted nuclear localization of P-Smad2
